According to PubChem BioAssay (NCI):
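Assay format: 96-well plates, 48-hour exposure. At the GI50, growth is halved. Definition used: TGI = concentration required for complete inhibition of growth.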

What was measured:
Test in all cases: growth of human tumour cells (NCI), 48 h; in the data active means GI50 below about 0.43 µM; inactive means the rest
HCC-2998 colon = system: HCC-2998 colon
DU-145 prostate = system: DU-145 prostate
NCI/ADR-RES ovarian = system: NCI/ADR-RES ovarian
SF-268 CNS = system: SF-268 CNS
SK-MEL-5 melanoma = system: SK-MEL-5 melanoma
NCI-H522 lung = system: NCI-H522 lung
HOP-62 NSCLC = system: HOP-62 NSCLC
MDA-MB-435 = system: MDA-MB-435
SK-MEL-28 melanoma = system: SK-MEL-28 melanoma
A549 NSCLC = system: A549 NSCLC
SW-620 colon = system: SW-620 colon
SNB-75 CNS = system: SNB-75 CNS
TK-10 renal = system: TK-10 renal
SNB-19 CNS = system: SNB-19 CNS
MDA-N = system: MDA-N
COLO 205 colon = system: COLO 205 colon
CAKI-1 renal = system: CAKI-1 renal
SK-OV-3 ovarian = system: SK-OV-3 ovarian
SF-539 CNS = system: SF-539 CNS
SK-MEL-2 melanoma = system: SK-MEL-2 melanoma
OVCAR-8 ovarian = system: OVCAR-8 ovarian
HL-60(TB) leukemia = system: HL-60(TB) leukemia
NCI-H460 lung = system: NCI-H460 lung
SN12C renal = system: SN12C renal
UACC-62 melanoma = system: UACC-62 melanoma
HCT-116 colon = system: HCT-116 colon
NCI-H23 lung = system: NCI-H23 lung
SF-295 CNS = system: SF-295 CNS
LOX IMVI melanoma = system: LOX IMVI melanoma
M14 melanoma = system: M14 melanoma
CCRF-CEM leukemia = system: CCRF-CEM leukemia
HCT-15 colon = system: HCT-15 colon
NCI-H226 lung = system: NCI-H226 lung
HOP-92 NSCLC = system: HOP-92 NSCLC
HT29 colon = system: HT29 colon
MCF7 breast = system: MCF7 breast
K-562 leukemia = system: K-562 leukemia
MDA-MB-231 breast = system: MDA-MB-231 breast
OVCAR-4 ovarian = system: OVCAR-4 ovarian
HS 578T breast = system: HS 578T breast
U251 CNS = system: U251 CNS
A498 renal = system: A498 renal
OVCAR-3 ovarian = system: OVCAR-3 ovarian
IGROV1 ovarian = system: IGROV1 ovarian
ACHN renal = system: ACHN renal
SR leukemia = system: SR leukemia
PC-3 prostate = system: PC-3 prostate
UO-31 renal = system: UO-31 renal
EKVX NSCLC = system: EKVX NSCLC
T-47D breast = system: T-47D breast
RXF 393 renal = system: RXF 393 renal
KM12 colon = system: KM12 colon
OVCAR-5 ovarian = system: OVCAR-5 ovarian
MALME-3M melanoma = system: MALME-3M melanoma
786-0 renal = system: 786-0 renal
MOLT-4 leukemia = system: MOLT-4 leukemia
RPMI-8226 leukemia = system: RPMI-8226 leukemia
UACC-257 melanoma = system: UACC-257 melanoma
BT-549 breast = system: BT-549 breast

COc1ccc2oc3c(ccc[n+]3C)c(=O)c2c1
> 100 µM: TGI (HCC-2998 colon) | TGI (DU-145 prostate) | TGI (NCI/ADR-RES ovarian) | TGI (SF-268 CNS) | TGI (SK-MEL-5 melanoma) | TGI (NCI-H522 lung) | TGI (HOP-62 NSCLC) | TGI (MDA-MB-435) | TGI (SK-MEL-28 melanoma) | TGI (A549 NSCLC) | TGI (SW-620 colon) | TGI (SNB-75 CNS) | TGI (TK-10 renal) | TGI (SNB-19 CNS) | TGI (MDA-N) | TGI (COLO 205 colon) | TGI (CAKI-1 renal) | TGI (SK-OV-3 ovarian) | TGI (SF-539 CNS) | TGI (SK-MEL-2 melanoma) | TGI (OVCAR-8 ovarian) | TGI (HL-60(TB) leukemia) | TGI (NCI-H460 lung) | TGI (SN12C renal) | TGI (UACC-62 melanoma) | TGI (HCT-116 colon) | TGI (NCI-H23 lung) | TGI (SF-295 CNS) | TGI (LOX IMVI melanoma) | TGI (M14 melanoma) | TGI (CCRF-CEM leukemia) | TGI (HCT-15 colon) | TGI (NCI-H226 lung) | TGI (HOP-92 NSCLC) | TGI (HT29 colon) | TGI (MCF7 breast) | TGI (K-562 leukemia) | TGI (MDA-MB-231 breast) | TGI (OVCAR-4 ovarian) | TGI (HS 578T breast) | TGI (U251 CNS) | TGI (A498 renal) | TGI (OVCAR-3 ovarian) | TGI (IGROV1 ovarian) | TGI (ACHN renal) | TGI (SR leukemia) | TGI (PC-3 prostate) | TGI (UO-31 renal) | TGI (EKVX NSCLC) | TGI (T-47D breast) | TGI (RXF 393 renal) | TGI (KM12 colon) | TGI (OVCAR-5 ovarian) | TGI (MALME-3M melanoma)

C/C(CC(O)(C(F)(F)F)C(F)(F)F)=N/Nc1ccc([N+](=O)[O-])cc1[N+](=O)[O-]
6.58 µM: TGI (MDA-MB-231 breast)
6.66 µM: TGI (NCI-H226 lung)
7.27 µM: TGI (NCI-H23 lung)
3.85 µM: TGI (COLO 205 colon)
6.11 µM: TGI (SK-MEL-2 melanoma)
5.91 µM: TGI (RPMI-8226 leukemia)
9.56 µM: TGI (K-562 leukemia)
6.3 µM: TGI (SK-OV-3 ovarian)
8.37 µM: TGI (A498 renal) | TGI (T-47D breast)
4.56 µM: TGI (HCT-116 colon)
9.15 µM: TGI (HOP-62 NSCLC)
7.85 µM: TGI (HS 578T breast)
> 10 µM: TGI (HCC-2998 colon) | TGI (DU-145 prostate) | TGI (786-0 renal) | TGI (MOLT-4 leukemia) | TGI (NCI/ADR-RES ovarian) | TGI (SF-268 CNS) | TGI (NCI-H522 lung) | TGI (MDA-MB-435) | TGI (SK-MEL-28 melanoma) | TGI (A549 NSCLC) | TGI (SW-620 colon) | TGI (SNB-75 CNS) | TGI (TK-10 renal) | TGI (SNB-19 CNS) | TGI (MDA-N) | TGI (CAKI-1 renal) | TGI (SF-539 CNS) | TGI (OVCAR-8 ovarian) | TGI (NCI-H460 lung) | TGI (SN12C renal) | TGI (UACC-62 melanoma) | TGI (SF-295 CNS) | TGI (LOX IMVI melanoma) | TGI (M14 melanoma) | TGI (CCRF-CEM leukemia) | TGI (HCT-15 colon) | TGI (HT29 colon) | TGI (UACC-257 melanoma) | TGI (MCF7 breast) | TGI (OVCAR-4 ovarian) | TGI (U251 CNS) | TGI (IGROV1 ovarian) | TGI (ACHN renal) | TGI (SR leukemia) | TGI (PC-3 prostate) | TGI (UO-31 renal) | TGI (EKVX NSCLC) | TGI (KM12 colon) | TGI (MALME-3M melanoma)
7.94 µM: TGI (HL-60(TB) leukemia)
8.33 µM: TGI (OVCAR-3 ovarian)
4 µM: TGI (SK-MEL-5 melanoma)
4.7 µM: TGI (HOP-92 NSCLC)
7.53 µM: TGI (RXF 393 renal)

COc1ccc(-c2cc3c(N)ncnc3o2)cc1
> 25 µM: TGI (HCC-2998 colon) | TGI (DU-145 prostate) | TGI (786-0 renal) | TGI (MOLT-4 leukemia) | TGI (NCI/ADR-RES ovarian) | TGI (SF-268 CNS) | TGI (SK-MEL-5 melanoma) | TGI (NCI-H522 lung) | TGI (HOP-62 NSCLC) | TGI (MDA-MB-435) | TGI (SK-MEL-28 melanoma) | TGI (A549 NSCLC) | TGI (SW-620 colon) | TGI (SNB-75 CNS) | TGI (TK-10 renal) | TGI (RPMI-8226 leukemia) | TGI (SNB-19 CNS) | TGI (COLO 205 colon) | TGI (CAKI-1 renal) | TGI (SK-OV-3 ovarian) | TGI (SF-539 CNS) | TGI (SK-MEL-2 melanoma) | TGI (OVCAR-8 ovarian) | TGI (HL-60(TB) leukemia) | TGI (NCI-H460 lung) | TGI (SN12C renal) | TGI (UACC-62 melanoma) | TGI (HCT-116 colon) | TGI (NCI-H23 lung) | TGI (BT-549 breast) | TGI (SF-295 CNS) | TGI (LOX IMVI melanoma) | TGI (M14 melanoma) | TGI (CCRF-CEM leukemia) | TGI (HCT-15 colon) | TGI (NCI-H226 lung) | TGI (HOP-92 NSCLC) | TGI (HT29 colon) | TGI (UACC-257 melanoma) | TGI (MCF7 breast) | TGI (K-562 leukemia) | TGI (MDA-MB-231 breast) | TGI (OVCAR-4 ovarian) | TGI (HS 578T breast) | TGI (U251 CNS) | TGI (A498 renal) | TGI (OVCAR-3 ovarian) | TGI (IGROV1 ovarian) | TGI (ACHN renal) | TGI (SR leukemia) | TGI (PC-3 prostate) | TGI (UO-31 renal) | TGI (EKVX NSCLC) | TGI (T-47D breast) | TGI (RXF 393 renal) | TGI (KM12 colon) | TGI (OVCAR-5 ovarian) | TGI (MALME-3M melanoma)
inactive: GI50 (HCC-2998 colon) > 25 µM | GI50 (DU-145 prostate) 19.9 µM | GI50 (786-0 renal) > 25 µM | GI50 (MOLT-4 leukemia) > 25 µM | GI50 (NCI/ADR-RES ovarian) > 25 µM | GI50 (SF-268 CNS) 21.3 µM | GI50 (SK-MEL-5 melanoma) > 22.4 µM | GI50 (NCI-H522 lung) > 25 µM | GI50 (HOP-62 NSCLC) > 25 µM | GI50 (MDA-MB-435) > 25 µM | GI50 (SK-MEL-28 melanoma) > 25 µM | GI50 (A549 NSCLC) > 25 µM | GI50 (SW-620 colon) > 25 µM | GI50 (SNB-75 CNS) 24.9 µM | GI50 (TK-10 renal) 9.44 µM | GI50 (RPMI-8226 leukemia) > 25 µM | GI50 (SNB-19 CNS) > 25 µM | GI50 (COLO 205 colon) > 25 µM | GI50 (CAKI-1 renal) 17.6 µM | GI50 (SK-OV-3 ovarian) > 25 µM | GI50 (SF-539 CNS) > 25 µM | GI50 (SK-MEL-2 melanoma) > 25 µM | GI50 (OVCAR-8 ovarian) > 25 µM | GI50 (HL-60(TB) leukemia) > 25 µM | GI50 (NCI-H460 lung) > 25 µM | GI50 (SN12C renal) 14.8 µM | GI50 (UACC-62 melanoma) 5.72 µM | GI50 (HCT-116 colon) > 25 µM | GI50 (NCI-H23 lung) > 25 µM | GI50 (BT-549 breast) > 25 µM | GI50 (SF-295 CNS) > 25 µM | GI50 (LOX IMVI melanoma) > 25 µM | GI50 (M14 melanoma) > 19.1 µM | GI50 (CCRF-CEM leukemia) > 25 µM | GI50 (HCT-15 colon) > 25 µM | GI50 (NCI-H226 lung) > 25 µM | GI50 (HOP-92 NSCLC) 17.1 µM | GI50 (HT29 colon) > 22.7 µM | GI50 (UACC-257 melanoma) > 25 µM | GI50 (MCF7 breast) > 25 µM | GI50 (K-562 leukemia) > 25 µM | GI50 (MDA-MB-231 breast) > 25 µM | GI50 (OVCAR-4 ovarian) > 25 µM | GI50 (HS 578T breast) 5.85 µM | GI50 (U251 CNS) > 25 µM | GI50 (A498 renal) 8.14 µM | GI50 (OVCAR-3 ovarian) > 25 µM | GI50 (IGROV1 ovarian) 24.3 µM | GI50 (ACHN renal) > 25 µM | GI50 (SR leukemia) > 25 µM | GI50 (PC-3 prostate) > 25 µM | GI50 (UO-31 renal) 12.4 µM | GI50 (EKVX NSCLC) 3.59 µM | GI50 (T-47D breast) > 25 µM | GI50 (RXF 393 renal) > 25 µM | GI50 (KM12 colon) > 25 µM | GI50 (OVCAR-5 ovarian) > 25 µM | GI50 (MALME-3M melanoma) 15.5 µM
